Measured values published in US20060079696A1, “Substituted compounds derived from N-(benzyl)phenylacetamide, preparation and uses” (GENFIT, priority 2004, published 2006).

Columns and labels:
Format in all cases: cell-based
hPPARδ = target: T1, hPPARδ (Homo sapiens, UniProt Q03181); experiment: Gal4-hPPARδ chimera transactivation in COS-7 cells (luciferase); settings: induction factor standardised to an internal reference, read-out: % hGal4-PPAR transactivation (10 μM) delta
T1 construct: fragments of DNA amplified by PCR corresponding to the DEF domains of the human PPARα, PPARγ PPARδ nuclear receptors; expressed in transfected cells; host or cells: COS-7 (monkey kidney fibroblast line)
T1 sequence (Q03181 211-439 limits assumed): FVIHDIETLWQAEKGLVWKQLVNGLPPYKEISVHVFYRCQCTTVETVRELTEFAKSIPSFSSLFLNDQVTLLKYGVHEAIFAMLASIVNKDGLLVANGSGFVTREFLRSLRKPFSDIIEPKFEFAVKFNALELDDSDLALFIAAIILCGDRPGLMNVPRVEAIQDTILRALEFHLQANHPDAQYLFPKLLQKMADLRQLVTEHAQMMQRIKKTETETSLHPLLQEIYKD
Experimental: (§1) The PPAR activation was evaluated in vitro on a monkey kidney fibroblast line (COS-7) by measuring the transcriptional activity of chimeras constituted of the DNA binding domain of the Gal4 transcription factor of yeast and of the binding domain to the ligand of the different PPARs. The compounds were tested at doses between 0.01 and 100 μM on Gal4-PPARα, γ, δ chimeras. The induction factor (ratio between the luminescence induced by the compound and the luminescence induced by the control) was measured for each condition: the higher this factor, the more the compound has PPAR-activating properties.
(§2) The COS-7 cells from ATCC were cultivated in a DMEM medium supplemented with 10% (vol/vol) of foetal calf serum, 100 U/ml penicillin (Gibco, Paisley, UK) and 2 mM L-Glutamine (Gibco, Paisley, UK). The cells were incubated at 37° C. in a humid atmosphere containing 5% CO2.
(§3) The Gal4(RE)_TkpGL3, pGal4-hPPARα, pGal4-hPPARγ, pGal4-hPPARδ and pGal4-φ plasmids have been described in the literature (Raspe, Madsen et al. 1999). The pGal4-hPPARα, pGal4-hPPARγ and pGal4-hPPARδ constructs were obtained by cloning in the pGal4-φ vector of fragments of DNA amplified by PCR corresponding to the DEF domains of the human PPARα, PPARγ PPARδ nuclear receptors.
(§4) COS-7 cells were plated in 96 wells plates (5×10^4 cells/well) and transfected, in the presence of 10% foetal calf serum and 150 ng DNA per well, with a pGal4-PPAR/Gal4(RE)_TkpGL3 ratio of 1/10. The cells were then incubated for 24 hours with the compounds to be tested, without serum. At the end of the experiment, the cells were lysed and the luciferase activities were determined by means of Steady Glow Luciferase (Promega) according to the supplier's recommendations.
(§5) The inventive compounds were tested at 10 μM on the 3 PPAR isoforms. The results obtained are detailed in table (1). The transactivation measured is expressed as a response ratio versus an internal reference for each of the isoforms.
(§6) The compounds were tested at 10 μM on the Gal4-PPARα, γ, δ chimeras. The induction factor, i.e. the ratio between the luminescence induced by the compound and the luminescence induced by the control, was measured for each condition. It was then standardised in comparison to an internal reference and the results were then expressed in percentages : the higher the activation percentage, the more the compound has PPAR-activating properties.

hPPARγ = target: T2, hPPARγ (Homo sapiens, UniProt P37231); experiment: Gal4-hPPARγ chimera transactivation in COS-7 cells (luciferase); settings: induction factor standardised to an internal reference, read-out: % hGal4-PPAR transactivation (10 μM) gamma
T2 construct: fragments of DNA amplified by PCR corresponding to the DEF domains of the human PPARα, PPARγ PPARδ nuclear receptors; expressed in transfected cells; host or cells: COS-7 (monkey kidney fibroblast line)
T2 sequence (P37231 238-503 limits assumed): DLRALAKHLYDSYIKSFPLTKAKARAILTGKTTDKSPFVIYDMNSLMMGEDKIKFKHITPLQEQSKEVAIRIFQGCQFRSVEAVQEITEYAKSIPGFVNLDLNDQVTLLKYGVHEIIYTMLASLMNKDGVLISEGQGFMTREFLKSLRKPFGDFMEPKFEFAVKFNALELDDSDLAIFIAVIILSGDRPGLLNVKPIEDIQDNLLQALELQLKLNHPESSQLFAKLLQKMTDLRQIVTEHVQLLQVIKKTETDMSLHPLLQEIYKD
Experimental: as §1, §2, §3, §4, §5, §6

hPPARα = target: T3, hPPARα (Homo sapiens, UniProt Q07869); experiment: Gal4-hPPARα chimera transactivation in COS-7 cells (luciferase); settings: induction factor standardised to an internal reference, read-out: % hGal4-PPAR transactivation (10 μM) alpha
T3 construct: fragments of DNA amplified by PCR corresponding to the DEF domains of the human PPARα, PPARγ PPARδ nuclear receptors; expressed in transfected cells; host or cells: COS-7 (monkey kidney fibroblast line)
T3 sequence (Q07869 239-466 limits assumed): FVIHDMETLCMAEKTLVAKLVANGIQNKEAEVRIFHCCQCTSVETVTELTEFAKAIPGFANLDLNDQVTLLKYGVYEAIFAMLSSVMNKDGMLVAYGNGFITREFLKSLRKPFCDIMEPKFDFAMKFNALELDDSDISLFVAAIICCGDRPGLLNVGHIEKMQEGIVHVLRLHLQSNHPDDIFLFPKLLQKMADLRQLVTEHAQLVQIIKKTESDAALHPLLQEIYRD
Experimental: as §1, §2, §3, §4, §5, §6

SMILES: CCCCC(NC(=O)Cc1ccc(OC(C)(C)C(=O)O)cc1)c1ccc(-n2ccc3ccccc32)cc1N1CCCCC1 (stereo not drawn) [Compound 38, 2-[4-[1-(1-(2-(1-piperidinyl)-4-(1H-indolyl)phenyl)pentyl)aminocarbonylmethyl]phenoxy]-2-methylpropanoic acid]
- activation at 10 µM (hPPARδ): 18%
- activation at 10 µM (hPPARγ): < 10%
- activation at 10 µM (hPPARα): 13%

SMILES: CC(NC(=O)Cc1ccc(OC(C)(C)C(=O)O)cc1)c1ccccc1N1CCCCC1 (stereo not drawn) [Compound 2, 2-[4-[1-(1-(2-(1-piperidinyl)phenyl)ethyl)aminocarbonylmethyl]phenoxy]-2-methylpropanoic acid]
- activation at 10 µM (hPPARδ): < 10%
- activation at 10 µM (hPPARγ): 27%
- activation at 10 µM (hPPARα): < 10%

SMILES: CCN(CCCC(C)(C)C(=O)O)c1ccc(CC(=O)NC(CC(C)C)c2ccccc2N2CCCCC2)cc1 (stereo not drawn) [Compound 46, 5-{N-ethyl-N-[4-[1-(3-methyl-1-(2-(1-piperidinyl)phenyl)butyl)aminocarbonylmethyl]phenyl]amino}-2,2-dimethylpentanoic acid]
- activation at 10 µM (hPPARδ): < 10%
- activation at 10 µM (hPPARγ): 12%
- activation at 10 µM (hPPARα): 58%

SMILES: CCCCC(NC(=O)Cc1ccc(OC(C)(C)C(=O)O)cc1)c1ccc(CCc2ccccc2)cc1N1CCCCC1 (stereo not drawn) [Compound 50, 2-[4-[1-(1-(2-(1-piperidinyl)-4-(phenethyl)phenyl)pentyl)aminocarbonylmethyl]phenoxy]-2-methylpropanoic acid]
- activation at 10 µM (hPPARδ): 11%
- activation at 10 µM (hPPARγ): < 10%
- activation at 10 µM (hPPARα): < 10%

SMILES: CCCCC(NC(=O)Cc1ccc(OC(C)(C)C(=O)O)cc1)c1ccccc1N1C[C@H](C)C[C@H](C)C1 (stereo partly drawn) [Compound 43, 2-[4-[1-(1-(2-((3S,5R)-3,5-dimethylpiperidine-1-yl)phenyl)pentyl)aminocarbonylmethyl]phenoxy]-2-methylpropanoic acid]
- activation at 10 µM (hPPARδ): < 10%
- activation at 10 µM (hPPARγ): 18%
- activation at 10 µM (hPPARα): 27%

SMILES: CCCCC(NC(=O)Cc1ccc(OC(C)(C)C(=O)NS(C)(=O)=O)cc1)c1ccccc1OC (stereo not drawn) [Compound 67, N-[methylsulfonyl]-2-[4-[1-(1-(2-(methoxy)phenyl)pentyl)aminocarbonylmethyl]phenoxy]-2-methylpropanamide]
- activation at 10 µM (hPPARδ): < 10%
- activation at 10 µM (hPPARγ): < 10%
- activation at 10 µM (hPPARα): < 10%

SMILES: COc1ccc(CC(NC(=O)Cc2ccc(OC(C)(C)C(=O)O)cc2)c2ccccc2N2CCCCC2)cc1 (stereo not drawn) [Compound 48, 2-[4-[1-(2-(4-methoxyphenyl)-1-(2-(1-piperidinyl)phenyl)ethyl)aminocarbonylmethyl]phenoxy]-2-methylpropanoic acid]
- activation at 10 µM (hPPARδ): < 10%
- activation at 10 µM (hPPARγ): 17%
- activation at 10 µM (hPPARα): < 10%

SMILES: CCCCCCC(NC(=O)Cc1ccc(OC(C)(C)C(=O)O)cc1)c1ccccc1N1CCCCC1 (stereo not drawn) [Compound 5, 2-[4-[1-(1-(2-(1-piperidinyl)phenyl)heptyl)aminocarbonylmethyl]phenoxy]-2-methylpropanoic acid]
- activation at 10 µM (hPPARδ): < 10%
- activation at 10 µM (hPPARγ): 82%
- activation at 10 µM (hPPARα): 31%

SMILES: CC(NC(=O)Cc1ccc(OC(C)(C)C(=O)O)cc1)c1ccccc1N1CCCCCC1 (stereo not drawn) [Compound 15, 2-[4-[1-(1-(2-(1-hexamethyleneimino)phenyl)ethyl)aminocarbonylmethyl]phenoxy]-2-methylpropanoic acid]
- activation at 10 µM (hPPARδ): < 10%
- activation at 10 µM (hPPARγ): 42%
- activation at 10 µM (hPPARα): < 10%

SMILES: CCCC(NC(=O)Cc1ccc(OC(C)(C)C(=O)NS(C)(=O)=O)cc1)c1ccccc1N1CCCCC1 (stereo not drawn) [Compound 66, N-[methylsulfonyl]-2-[4-[1-(1-(2-(1-piperidinyl)phenyl)butyl)aminocarbonylmethyl]phenoxy]-2-methylpropanamide]
- activation at 10 µM (hPPARδ): < 10%
- activation at 10 µM (hPPARγ): < 10%
- activation at 10 µM (hPPARα): 40%

SMILES: Cc1cc(CC(=O)NC(CC(C)C)c2ccccc2N2CCCCC2)cc(C)c1OC(C)(C)C(=O)O (stereo not drawn) [Compound 11, 2-[2,6-dimethyl-4-[1-(3-methyl-1-(2-(1-piperidinyl)phenyl)butyl)aminocarbonylmethyl]phenoxy]-2-methylpropanoic acid]
- activation at 10 µM (hPPARδ): < 10%
- activation at 10 µM (hPPARγ): 47%
- activation at 10 µM (hPPARα): < 10%

SMILES: CCCCC(NC(=O)Cc1ccc(OCC(C)(C)C(=O)O)cc1)c1ccccc1N1CCCCC1 (stereo not drawn) [Compound 42, 3-[4-[1-(1-(2-(1-piperidinyl)phenyl)pentyl)aminocarbonylmethyl]phenoxy]-2,2-dimethylpropanoic acid]
- activation at 10 µM (hPPARδ): < 10%
- activation at 10 µM (hPPARγ): < 10%
- activation at 10 µM (hPPARα): 32%

SMILES: CCCCC(NC(=O)Cc1ccc(OCCCC(Cl)(Cl)C(=O)O)cc1)c1ccccc1N1CCCCC1 (stereo not drawn) [Compound 47, 5-[4-[1-(1-(2-(1-piperidinyl)phenyl)pentyl)aminocarbonylmethyl]phenoxy]-2,2-dichloropentanoic acid]
- activation at 10 µM (hPPARδ): < 10%
- activation at 10 µM (hPPARγ): < 10%
- activation at 10 µM (hPPARα): 42%

SMILES: CCCCC(NC(=O)Cc1ccc(OCc2nnn[nH]2)cc1)c1ccccc1N1CCCCC1 (stereo not drawn) [Compound 70, 2-(4-((1H-tetrazol-5-yl)methoxy)phenyl)-N-[1-(1-(2-(1-piperidinyl)phenyl)pentyl)]acetamide]
- activation at 10 µM (hPPARδ): < 10%
- activation at 10 µM (hPPARγ): 13%
- activation at 10 µM (hPPARα): < 10%

SMILES: CCCCC(NC(=O)Cc1ccc(OC(C)(C)C(=O)O)c(OC)c1)c1ccccc1N1CCCCC1 (stereo not drawn) [Compound 73, 2-[2-methoxy-4-[1-(1-(2-(1-piperidinyl)phenyl)pentyl)aminocarbonylmethyl]phenoxy]-2-methylpropanoic acid]
- activation at 10 µM (hPPARδ): < 10%
- activation at 10 µM (hPPARγ): 42%
- activation at 10 µM (hPPARα): < 10%

SMILES: CC(C)CC(NC(=O)Cc1ccc(OCCCCOc2ccc(OC(C)(C)C(=O)O)cc2)cc1)c1ccccc1N1CCCCC1 (stereo not drawn) [Compound 40, 2-{4-{4-[4-[1-(3-methyl-1-(2-(1-piperidinyl)phenyl)butyl)aminocarbonylmethyl]phenoxy]butoxy}phenoxy}-2-methylpropanoic acid]
- activation at 10 µM (hPPARδ): < 10%
- activation at 10 µM (hPPARγ): 55%
- activation at 10 µM (hPPARα): 20%

SMILES: CCCCC(NC(=O)Cc1ccc(OC(C)(C)C(=O)O)cc1)c1ccccc1OCC(C)C (stereo not drawn) [Compound 68, 2-[4-[1-(1-(2-(isobutyloxy)phenyl)pentyl)aminocarbonylmethyl]phenoxy]-2-methylpropanoic acid]
- activation at 10 µM (hPPARδ): < 10%
- activation at 10 µM (hPPARγ): 37%
- activation at 10 µM (hPPARα): < 10%
